Measurements published in ChEMBL document CHEMBL1201862, “PubChem BioAssay data set” (2004).
The source made the active and inactive calls.

What was measured:
[1] = target: T1, Aryl hydrocarbon receptor (Homo sapiens, UniProt P35869); assay: Luminescence-based cell-based high throughput dose response assay for activators of the Aryl Hydrocarbon Receptor (AHR). [Related pubchem assays: 2796 (Primary screen (AHR activators in singlicate)), 2845 (Confirmation screen (AHR activators in triplicate)), 434939 (Counterscreen (PXR activators in triplicate)), 2804 (Summary (AHR activators))]; assay type: ADME
T1 sequence (P35869 whole entry): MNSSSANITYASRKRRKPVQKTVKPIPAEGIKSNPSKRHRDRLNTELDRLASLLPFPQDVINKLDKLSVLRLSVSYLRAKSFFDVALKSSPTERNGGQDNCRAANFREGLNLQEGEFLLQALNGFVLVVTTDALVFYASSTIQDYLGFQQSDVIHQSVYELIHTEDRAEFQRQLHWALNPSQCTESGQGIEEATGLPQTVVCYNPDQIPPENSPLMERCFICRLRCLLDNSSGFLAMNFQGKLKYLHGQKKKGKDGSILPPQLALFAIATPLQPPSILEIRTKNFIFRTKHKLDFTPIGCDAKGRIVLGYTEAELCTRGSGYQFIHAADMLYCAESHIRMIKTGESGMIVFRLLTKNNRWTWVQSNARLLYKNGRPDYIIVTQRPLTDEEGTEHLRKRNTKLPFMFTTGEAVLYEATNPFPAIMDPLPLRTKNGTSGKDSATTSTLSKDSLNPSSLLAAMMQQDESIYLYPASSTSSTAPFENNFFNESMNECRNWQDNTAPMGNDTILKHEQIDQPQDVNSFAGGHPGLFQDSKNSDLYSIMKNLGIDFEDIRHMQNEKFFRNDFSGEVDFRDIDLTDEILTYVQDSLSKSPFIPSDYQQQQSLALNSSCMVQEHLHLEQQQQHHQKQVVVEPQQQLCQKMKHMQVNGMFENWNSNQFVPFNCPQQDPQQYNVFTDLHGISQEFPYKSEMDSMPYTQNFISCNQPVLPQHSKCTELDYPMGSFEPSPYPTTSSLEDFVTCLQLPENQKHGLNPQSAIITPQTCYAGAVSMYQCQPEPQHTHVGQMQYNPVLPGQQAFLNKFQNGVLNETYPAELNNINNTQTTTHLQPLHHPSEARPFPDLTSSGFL

Protein Tat = Protein Tat (Human immunodeficiency virus type 1 group M subtype B (isolate HXB2)(HIV-1), UniProt P04608); assay type: functional;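 further: tat binding to TAR RNA read out by fluorescence polarization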
[2] = viability loss in THP-1 monocytes – THP-1 cells, cytotoxicity control for Vif-APOBEC3G degradation inhibitor project, dose response (AID 1117359); assay type: functional; details: THP-1
[3] = viability inhibitors of stage V gametocytes – luminescence, dose response (AID 1117278); assay type: functional, cell-based;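 further: gametocytes exposed to compound for 24 hours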
[4] = viability loss in human Jurkat cells – cell-based, luminescence, cytotoxicity control for P. falciparum gametocyte viability project, dose response (AID 1117277); assay type: functional;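 further: potency reflects loss of cellular ATP meaning fewer viable cells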
[5] = Dd2 parasite growth inhibition in erythrocytes – SYBR Green, dry powder samples, set 9, dose response (AID 1159568); assay type: functional, cell-based
BJ [6] = assay: cells; assay type: functional, cell-based; details: Homo sapiens
BJ [7] = assay: BJ-TERT fibroblast viability loss – cell-based, RAS-independent, luminescence, dose response (AID 1933); assay type: functional; details: Homo sapiens
[8] = A549 cell cytotoxicity, dose response, cytotoxicity control, plate reader, cherry-pick, antagonist series (AID 743412); assay type: functional, cell-based
HEK293 = assay: EBV LMP1 TES2 canonical NF-kB signalling blockers – cell-based, HEK293, luciferase, cherry-pick, dose response (AID 588343); assay type: functional; details: Homo sapiens
[9] = target: T2, Oxysterols receptor LXR-beta (Homo sapiens, UniProt P55055); assay type: functional, cell-based;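 further: Cell-based luminescence dose-response assay of agonist activity at LXR, run as a confirmatory counterscreen to a daf-12 agonist screen; HEK293 cells with Gal4-LXR fusion and GAL4-driven luciferase reporter; agonist potency from rising luciferase signal of a Gal4-LXR reporter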
T2 sequence (P55055 whole entry): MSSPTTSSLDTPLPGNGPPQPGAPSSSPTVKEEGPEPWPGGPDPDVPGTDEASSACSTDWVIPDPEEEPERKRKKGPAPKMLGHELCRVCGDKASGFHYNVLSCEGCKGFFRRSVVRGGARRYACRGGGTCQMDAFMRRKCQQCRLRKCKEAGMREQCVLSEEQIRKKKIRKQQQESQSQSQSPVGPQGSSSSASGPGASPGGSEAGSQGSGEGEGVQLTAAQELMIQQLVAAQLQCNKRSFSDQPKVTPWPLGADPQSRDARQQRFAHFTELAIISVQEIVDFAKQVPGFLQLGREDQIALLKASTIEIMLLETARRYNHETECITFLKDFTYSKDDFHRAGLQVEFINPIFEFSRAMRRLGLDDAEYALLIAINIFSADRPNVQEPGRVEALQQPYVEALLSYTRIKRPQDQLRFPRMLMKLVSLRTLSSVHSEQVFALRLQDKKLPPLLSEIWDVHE

HT-1080 = assay: HT1080 cell viability loss – fluorescence readout (AID 620); assay type: functional, cell-based; details: Homo sapiens
[10] = DRD fibroblast viability loss – cell-based, non-viral oncogenic, luminescence, dose response (AID 1934); assay type: functional; details: Homo sapiens
[11] = blockade of melanocortin 4 receptor signaling – cell-based, plate reader, cherry pick, counter-screen for LGR2 antagonist project, dose response (AID 743444); assay type: functional;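 further: transfected HEK 293 cells stimulated with alpha-MSH peptide; potency of inhibitors of the alpha-MSH evoked signal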
BJ [12] = assay: BJ-TERT-LT-ST fibroblast viability loss – cell-based, RAS-independent, luminescence, dose response (AID 1935); assay type: functional; details: Homo sapiens;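 further: BJ fibroblasts immortalized with TERT plus LT and ST oncogenes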
[13] = viability loss in HEK293 cells – cell-based, plate reader, cherry-picked samples, cytotoxicity control, dose response (AID 743446); assay type: functional
[14] = toxicity toward HepG2 liver cells – cell-based, plate reader, cherry-pick, antagonist series, cytotoxicity control, dose response (AID 743416); assay type: functional
[15] = blockers of bursicon-stimulated LGR2 cAMP reporter – cell-based, HEK293, CRE-luciferase reporter, cherry pick, set 2, dose response (AID 743343); assay type: functional;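 further: transfected cells were stimulated with diluted bursicon conditioned medium after compound addition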

Protein Tat, sequence (P04608 whole entry): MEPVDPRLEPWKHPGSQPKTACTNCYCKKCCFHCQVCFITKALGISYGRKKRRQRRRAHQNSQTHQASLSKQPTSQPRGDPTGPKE

Cc1ccccc1-c1nc(-c2cccnc2)no1
EC50 [1]: 1.74 µM (active)

COc1ccc(S(=O)(=O)c2c(N)n(Cc3ccco3)c3nc4ccccc4nc23)cc1
IC50 (Protein Tat): 3.46 µM (inconclusive) | CC50 [2]: > 40 µM (active)

Cc1ccc(-c2csc3ncnc(S)c23)cc1
IC50 [3]: > 109 µM (inactive) | IC50 [4]: 76.2 µM (inactive)

CCC(C(=O)NCc1cccnc1)c1ccccc1 (configuration not stated)
IC50 [3]: > 109 µM (inactive) | IC50 [4]: > 83.2 µM (inactive)

C[C@@H]1CCCCO[C@@H](CN(C)S(=O)(=O)c2ccc(F)cc2)[C@@H](C)CN([C@H](C)CO)C(=O)c2cc(N(C)C)ccc2O1
AC50 [5]: 7.15 µM (active)

O=C(Nc1ccccc1F)N1CCCCN2[C@H](CO)[C@H](c3ccc(/C=C/c4ccccc4)cc3)[C@H]2C1
AC50 [5]: 1.6 µM (active)

COc1ccccc1-c1nc(-c2ccccn2)no1
EC50 (BJ [6]): 10.4 µM (active) | EC50 (BJ [7]): 9.58 µM (active) | AC50 [8]: 10.4 µM (active) | AC50 (HEK293): 1.26 µM (active) | EC50 [9]: > 67.5 µM (inactive) | EC50 (HT-1080): > 50 µM (not active) | EC50 [10]: 7.2 µM (active) | AC50 [11]: 2.05 µM (active) | EC50 (BJ [12]): > 150 µM (inconclusive) | AC50 [13]: 10.7 µM (active) | AC50 [14]: 19.4 µM (active) | AC50 [15]: 3.35 µM (active) | EC50 (cells): > 67.5 µM (inactive)
